Earlier results, collected in patent US20190046468A1 (SUN PHARMACEUTICAL INDUSTRIES LIMITED, priority 2017, published 2019).

Columns and labels:
[1] = in vivo
[2] = aqueous media and many other solvents including acetone

Compound: COc1ccccc1OCC(O)CO (centres unmarked) [Guaifenesin]
- plasma half-life [1]: about 1 hour
- solubility [2]: freely soluble
